Activity calls are given as the source filed them. The rule behind the calls is not given here.
What was measured:
Beta-secretase 1 = Beta-secretase 1 (Homo sapiens, UniProt P56817); conditions: 50 uM
[1] = target: Cholinesterase (Equus caballus) (UniProt P81908); test: Inhibition of equine serum BuChE at 10 uM using butyrylthiocholine chloride as substrate pre-incubated for 5 mins followed by substrate addition and measured after 5 mins by Ellman's method relative to control
[2] = target: Amyloid-beta precursor protein (Homo sapiens) (UniProt P05067); conditions: at 10 µM
Amyloid-beta precursor protein (Homo sapiens), sequence (P05067 whole entry): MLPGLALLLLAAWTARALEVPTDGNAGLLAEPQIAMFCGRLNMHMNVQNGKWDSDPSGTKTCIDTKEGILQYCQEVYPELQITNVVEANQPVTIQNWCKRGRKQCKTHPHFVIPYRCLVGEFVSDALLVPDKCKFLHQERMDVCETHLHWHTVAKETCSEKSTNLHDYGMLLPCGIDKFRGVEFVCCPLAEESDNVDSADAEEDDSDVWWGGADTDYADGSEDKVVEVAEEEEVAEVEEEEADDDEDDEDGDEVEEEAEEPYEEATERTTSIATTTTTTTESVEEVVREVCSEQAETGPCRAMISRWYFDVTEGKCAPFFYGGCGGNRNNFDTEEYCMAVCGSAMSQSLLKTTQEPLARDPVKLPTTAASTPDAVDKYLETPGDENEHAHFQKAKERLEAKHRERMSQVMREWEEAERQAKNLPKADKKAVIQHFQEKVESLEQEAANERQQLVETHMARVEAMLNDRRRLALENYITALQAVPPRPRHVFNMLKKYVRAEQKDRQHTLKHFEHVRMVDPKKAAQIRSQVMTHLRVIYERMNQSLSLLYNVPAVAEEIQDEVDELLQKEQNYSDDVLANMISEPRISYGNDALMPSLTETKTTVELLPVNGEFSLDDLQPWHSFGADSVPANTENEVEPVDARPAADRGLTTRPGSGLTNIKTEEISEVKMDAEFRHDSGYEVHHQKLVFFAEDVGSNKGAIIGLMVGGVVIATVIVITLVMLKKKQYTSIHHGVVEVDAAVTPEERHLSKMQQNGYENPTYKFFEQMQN
Description: Inhibition of amyloid beta (1 to 42) (unknown origin) aggregation at 10 uM expressed in Escherichia coli BL21 (DE3) incubated for 24 hrs by thioflavin T-based fluorometric assay relative to control

[3] = target: Microtubule-associated protein tau (Homo sapiens) (UniProt P10636); test: Inhibition of tau aggregation (unknown origin) at 10 uM expressed in Escherichia coli BL21 (DE3) incubated for 24 hrs by thioflavin T-based fluorometric assay relative to control
Microtubule-associated protein tau (Homo sapiens), sequence (P10636 whole entry): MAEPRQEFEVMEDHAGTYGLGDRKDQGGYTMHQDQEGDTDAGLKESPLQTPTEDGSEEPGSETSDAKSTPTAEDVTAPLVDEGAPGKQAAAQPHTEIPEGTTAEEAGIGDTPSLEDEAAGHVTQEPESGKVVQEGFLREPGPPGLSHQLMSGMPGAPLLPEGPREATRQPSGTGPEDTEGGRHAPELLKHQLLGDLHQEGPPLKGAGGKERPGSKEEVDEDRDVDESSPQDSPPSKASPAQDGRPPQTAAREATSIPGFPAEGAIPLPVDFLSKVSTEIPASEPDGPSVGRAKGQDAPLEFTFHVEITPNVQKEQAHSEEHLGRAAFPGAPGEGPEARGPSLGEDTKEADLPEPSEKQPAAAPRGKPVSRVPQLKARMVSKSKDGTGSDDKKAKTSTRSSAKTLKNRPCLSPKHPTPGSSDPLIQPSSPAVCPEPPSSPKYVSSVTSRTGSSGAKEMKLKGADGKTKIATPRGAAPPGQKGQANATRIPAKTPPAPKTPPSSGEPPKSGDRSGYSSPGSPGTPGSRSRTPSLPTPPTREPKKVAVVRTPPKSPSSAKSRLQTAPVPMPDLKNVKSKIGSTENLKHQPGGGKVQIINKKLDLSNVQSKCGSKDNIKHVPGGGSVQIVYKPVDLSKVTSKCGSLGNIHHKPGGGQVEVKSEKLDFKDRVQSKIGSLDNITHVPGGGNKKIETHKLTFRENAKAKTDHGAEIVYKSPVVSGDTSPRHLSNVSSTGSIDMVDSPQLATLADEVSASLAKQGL

[4] = target: Acetylcholinesterase (Electrophorus electricus) (UniProt O42275); test: Inhibition of Electrophorus electricus AChE at 10 uM using acetylthiocholine iodide as substrate preincubated for 5 mins followed by substrate addition and measured after 5 mins by Ellman's method relative to control
Acetylcholinesterase (Electrophorus electricus), sequence (O42275 24-633 limits assumed): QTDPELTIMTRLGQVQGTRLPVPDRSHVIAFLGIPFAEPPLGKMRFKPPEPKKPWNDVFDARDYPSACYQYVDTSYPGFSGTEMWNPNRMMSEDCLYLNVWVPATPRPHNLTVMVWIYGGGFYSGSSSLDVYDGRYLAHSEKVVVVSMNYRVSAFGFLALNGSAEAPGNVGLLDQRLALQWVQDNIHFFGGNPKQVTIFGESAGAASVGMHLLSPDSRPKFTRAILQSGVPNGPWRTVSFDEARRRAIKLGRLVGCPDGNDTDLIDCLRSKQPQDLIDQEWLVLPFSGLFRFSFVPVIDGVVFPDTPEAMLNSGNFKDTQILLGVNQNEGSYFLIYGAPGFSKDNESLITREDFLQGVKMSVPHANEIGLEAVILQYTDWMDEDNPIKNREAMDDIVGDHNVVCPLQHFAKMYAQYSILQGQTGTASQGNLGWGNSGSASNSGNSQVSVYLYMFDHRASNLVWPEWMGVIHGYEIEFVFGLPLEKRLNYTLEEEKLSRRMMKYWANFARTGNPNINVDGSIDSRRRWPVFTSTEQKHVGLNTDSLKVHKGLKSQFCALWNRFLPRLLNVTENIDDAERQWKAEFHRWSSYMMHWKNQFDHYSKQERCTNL

[5] = Antioxidant activity assessed as increase in total ferric ion reducing activity at 30 uM using FeCl3.H2O and TPTZ incubated for 30 mins by FRAP assay relative to control; format: functional; design: scale not given: the % may be the effect or the level left
[6] = Antioxidant activity assessed as increase in total ferric ion reducing activity at 150 uM using FeCl3.H2O and TPTZ incubated for 60 mins by FRAP assay relative to control; format: functional; design: scale not given: the % may be the effect or the level left
[7] = Antioxidant activity assessed as ABTS radical scavenging activity at 75 uM measured after 5 mins by spectrophotometric assay relative to control; format: functional
[8] = Antioxidant activity assessed as increase in total ferric ion reducing activity at 30 uM using FeCl3.H2O and TPTZ incubated for 5 mins by FRAP assay relative to control; format: functional; design: scale not given: the % may be the effect or the level left
[9] = Antioxidant activity assessed as ABTS radical scavenging activity at 30 uM measured after 5 mins by spectrophotometric assay relative to control; format: functional
[10] = Antioxidant activity assessed as ABTS radical scavenging activity at 150 uM measured after 30 mins by spectrophotometric assay relative to control; format: functional
[11] = Antioxidant activity assessed as increase in total ferric ion reducing activity at 150 uM using FeCl3.H2O and TPTZ incubated for 5 mins by FRAP assay relative to control; format: functional; design: scale not given: the % may be the effect or the level left
Cholinesterase = Cholinesterase (Equus caballus, UniProt P81908)
Cholinesterase, sequence (P81908 whole entry): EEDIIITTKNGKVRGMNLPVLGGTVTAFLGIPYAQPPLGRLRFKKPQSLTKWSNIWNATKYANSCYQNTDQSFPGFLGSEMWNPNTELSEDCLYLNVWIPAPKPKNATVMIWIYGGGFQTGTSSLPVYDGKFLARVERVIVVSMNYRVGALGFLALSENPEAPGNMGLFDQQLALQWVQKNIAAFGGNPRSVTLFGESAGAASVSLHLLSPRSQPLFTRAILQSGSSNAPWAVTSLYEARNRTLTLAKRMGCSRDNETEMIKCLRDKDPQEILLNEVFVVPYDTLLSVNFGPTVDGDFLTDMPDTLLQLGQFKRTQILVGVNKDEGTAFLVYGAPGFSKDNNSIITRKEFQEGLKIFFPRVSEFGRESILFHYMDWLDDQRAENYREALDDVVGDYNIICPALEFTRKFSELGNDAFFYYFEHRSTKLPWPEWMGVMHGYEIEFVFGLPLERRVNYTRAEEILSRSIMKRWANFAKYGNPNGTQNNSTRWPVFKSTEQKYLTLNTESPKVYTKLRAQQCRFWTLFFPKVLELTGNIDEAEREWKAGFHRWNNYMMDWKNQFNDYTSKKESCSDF
Description: Inhibition of equine serum BuChE using butyrylthiocholine chloride as substrate pre-incubated for 5 mins followed by substrate addition and measured after 5 mins by Ellman's method

[12] = Antioxidant activity assessed as ABTS radical scavenging activity at 75 uM measured after 60 mins by spectrophotometric assay relative to control; format: functional
[13] = Antioxidant activity assessed as ABTS radical scavenging activity at 150 uM measured after 60 mins by spectrophotometric assay relative to control; format: functional
[14] = Antioxidant activity assessed as increase in total ferric ion reducing activity at 150 uM using FeCl3.H2O and TPTZ incubated for 30 mins by FRAP assay relative to control; format: functional; design: scale not given: the % may be the effect or the level left
[15] = Antioxidant activity assessed as ABTS radical scavenging activity at 30 uM measured after 30 mins by spectrophotometric assay relative to control; format: functional
[16] = Antioxidant activity assessed as increase in total ferric ion reducing activity at 75 uM using FeCl3.H2O and TPTZ incubated for 30 mins by FRAP assay relative to control; format: functional; design: scale not given: the % may be the effect or the level left
[17] = Antioxidant activity assessed as increase in total ferric ion reducing activity at 75 uM using FeCl3.H2O and TPTZ incubated for 5 mins by FRAP assay relative to control; format: functional; design: scale not given: the % may be the effect or the level left
[18] = Antioxidant activity assessed as increase in total ferric ion reducing activity at 75 uM using FeCl3.H2O and TPTZ incubated for 60 mins by FRAP assay relative to control; format: functional; design: scale not given: the % may be the effect or the level left
[19] = Metal chelating activity assessed as Cu2+-compound complex formation at 50 uM after 30 mins by UV-Visible spectrophotometric method
[20] = Antioxidant activity assessed as ABTS radical scavenging activity at 75 uM measured after 30 mins by spectrophotometric assay relative to control; format: functional
[21] = Antioxidant activity assessed as ABTS radical scavenging activity at 150 uM measured after 5 mins by spectrophotometric assay relative to control; format: functional
[22] = Antioxidant activity assessed as ABTS radical scavenging activity at 30 uM measured after 60 mins by spectrophotometric assay relative to control; format: functional
[23] = Antioxidant activity assessed as increase in total ferric ion reducing activity at 30 uM using FeCl3.H2O and TPTZ incubated for 60 mins by FRAP assay relative to control; format: functional; design: scale not given: the % may be the effect or the level left

Cholinesterase (Equus caballus), sequence (P81908 whole entry): as above
Beta-secretase 1, sequence (P56817 whole entry): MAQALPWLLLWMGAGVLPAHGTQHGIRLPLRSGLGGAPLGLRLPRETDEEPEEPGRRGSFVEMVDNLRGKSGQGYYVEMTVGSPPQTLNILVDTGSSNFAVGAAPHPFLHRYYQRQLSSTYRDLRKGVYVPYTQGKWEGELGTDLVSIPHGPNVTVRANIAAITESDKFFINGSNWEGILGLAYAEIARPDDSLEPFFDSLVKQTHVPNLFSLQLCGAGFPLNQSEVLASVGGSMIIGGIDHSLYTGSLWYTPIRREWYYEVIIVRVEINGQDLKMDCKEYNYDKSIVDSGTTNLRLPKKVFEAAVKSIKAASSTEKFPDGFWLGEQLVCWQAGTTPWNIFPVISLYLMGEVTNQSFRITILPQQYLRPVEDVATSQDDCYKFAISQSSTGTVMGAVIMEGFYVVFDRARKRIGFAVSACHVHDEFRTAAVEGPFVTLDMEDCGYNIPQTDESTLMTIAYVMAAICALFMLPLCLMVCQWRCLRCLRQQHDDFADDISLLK

| SMILES | inhibition (Beta-secretase 1) | inhibition [1] | inhibition [2] | inhibition [3] | inhibition [4] | Activity [5] | Activity [6] | Activity [7] | Activity [8] | Activity [9] | Activity [10] | Activity [11] | Activity [12] | Activity [13] | Activity [14] | Activity [15] | Activity [16] | Activity [17] | Activity [18] | Activity [20] | other results |
| --- | --- | --- | --- | --- | --- | --- | --- | --- | --- | --- | --- | --- | --- | --- | --- | --- | --- | --- | --- | --- | --- |
| O=C(CN1CCCC(c2ccccc2)C1)NC1CCN(Cc2ccccc2)C1 (centres undefined) | 14.7% | 46% | 38.8% | 43.6% | 30.6% |  |  |  |  |  |  |  |  |  |  |  |  |  |  |  |  |
| O=C(CN1CCN(CCc2ccccc2)CC1)NC1CCN(Cc2ccccc2)C1 (centres undefined) | 48.6% | 15.3% | 15.2% | 61.3% | < 10% |  |  |  |  |  |  |  |  |  |  |  |  |  |  |  |  |
| c1ccc(CCC2CCCN(CCNC3CCN(Cc4ccccc4)C3)C2)cc1 (centres undefined) | 42.6% |  | 41.3% | 57.2% | 38.5% | 6% | 11% | 12% | 4% | 12% | 60% | 9% | 36% | 76% | 9% | 18% | 3% | 2% | 4% | 26% | IC50 (Cholinesterase): 3.26 µM; Activity [19]: Active; Activity [21]: 33%; Activity [22]: 25%; Activity [23]: 7% |
| Cc1c(C)c2c(c(C)c1O)CCC(C)(C(=O)O)O2 (centres undefined) |  |  |  |  |  | 100% | 100% | 100% | 100% | 100% | 100% | 100% | 100% | 100% | 100% | 100% | 100% | 100% | 100% | 100% | Activity [21]: 100%; Activity [22]: 100%; Activity [23]: 100% |
| O=C(CN1CCN(Cc2ccccc2)CC1)NC1CCN(Cc2ccccc2)C1 (centres undefined) | 40.7% | 17.8% | 37.4% | 66.7% | < 10% |  |  |  |  |  |  |  |  |  |  |  |  |  |  |  |  |
| c1ccc(CCC2CCN(CCCNC3CCN(Cc4ccccc4)C3)CC2)cc1 (centres undefined) | 17% | 25.6% | 36.3% | 52.8% | 34.9% |  |  |  |  |  |  |  |  |  |  |  |  |  |  |  |  |
| O=C(CN1CCN(c2ccccc2)CC1)NC1CCN(Cc2ccccc2)C1 (centres undefined) | 43.7% | < 10% | 34.5% | 74.8% | < 10% | 33% | 72% | 23% | 10% | 23% | 66% | 44% | 59% | 76% | 58% | 50% | 44% | 14% | 60% | 49% | Activity [21]: 36%; Activity [22]: 62%; Activity [23]: 49% |
| O=C(CN1CCN(C(c2ccccc2)c2ccccc2)CC1)NC1CCN(Cc2ccccc2)C1 (centres undefined) | 40% | < 10% | 27.9% | 61.2% | < 10% |  |  |  |  |  |  |  |  |  |  |  |  |  |  |  |  |
| c1ccc(CN2CCC(NCCN3CCN(c4ccccc4)CC3)C2)cc1 (centres undefined) | 40.7% | 23.9% | 38.5% | 79.5% | < 10% | 39% | 79% | 50% | 15% | 42% | 98% | 55% | 85% | 99% | 68% | 71% | 54% | 23% | 68% | 78% | Activity [19]: Active; Activity [21]: 76%; Activity [22]: 80%; Activity [23]: 55% |
| c1ccc(CC2CCCN(CCNC3CCN(Cc4ccccc4)C3)C2)cc1 (centres undefined) | 24.1% |  |  |  | 29.9% | 10% | 35% | 18% | 7% | 21% | 80% | 30% | 53% | 94% | 32% | 14% | 28% | 24% | 30% | 40% | IC50 (Cholinesterase): 1.94 µM; Activity [19]: Active; Activity [21]: 49%; Activity [22]: 5%; Activity [23]: 10% |
| O=C(CCN1CCC(CCc2ccccc2)CC1)NC1CCN(Cc2ccccc2)C1 (centres undefined) | < 10% | 16.3% | 47.8% | 57.9% | 32.9% |  |  |  |  |  |  |  |  |  |  |  |  |  |  |  |  |
| O=C(CN1CCCC(CCc2ccccc2)C1)NC1CCN(Cc2ccccc2)C1 (centres undefined) | 28.8% |  |  |  | 26.7% |  |  |  |  |  |  |  |  |  |  |  |  |  |  |  | IC50 (Cholinesterase): 10.3 µM |
| c1ccc(CN2CCC(NCCN3CCC(c4ccccc4)CC3)C2)cc1 (centres undefined) | 11.8% | 45.5% | 37.4% | 68.1% | < 10% | 3% | 8% | 15% | 2% | 13% | 75% | 10% | 48% | 84% | 6% | 24% | 4% | 0% | 6% | 39% | Activity [19]: Active; Activity [21]: 37%; Activity [22]: 31%; Activity [23]: 3% |
| c1ccc(CN2CCC(NCCN3CCCC(c4ccccc4)C3)C2)cc1 (centres undefined) | 25% |  |  |  | 40.8% | 13% | 39% | 24% | 11% | 14% | 85% | 34% | 59% | 96% | 36% | 27% | 22% | 15% | 25% | 47% | IC50 (Cholinesterase): 2.39 µM; Activity [19]: Active; Activity [21]: 54%; Activity [22]: 38%; Activity [23]: 15% |
| O=C(CN1CCCC(Cc2ccccc2)C1)NC1CCN(Cc2ccccc2)C1 (centres undefined) | < 10% |  | 45.1% | 54.2% | 27.6% |  |  |  |  |  |  |  |  |  |  |  |  |  |  |  | IC50 (Cholinesterase): 7 µM |
| c1ccc(CCN2CCN(CCNC3CCN(Cc4ccccc4)C3)CC2)cc1 (centres undefined) | 33.5% | 25.7% | 34.7% | 59.6% | < 10% | 9% | 43% | 22% | 8% | 14% | 73% | 39% | 48% | 82% | 40% | 28% | 15% | 5% | 18% | 41% | Activity [21]: 46%; Activity [22]: 34%; Activity [23]: 10% |
| O=C(CN1CCC(c2ccccc2)CC1)NC1CCN(Cc2ccccc2)C1 (centres undefined) | 48.4% | 33.3% | 43.7% | 53.6% | < 10% |  |  |  |  |  |  |  |  |  |  |  |  |  |  |  | Activity [19]: Active |
| O=C(CN1CCC(CCc2ccccc2)CC1)NC1CCN(Cc2ccccc2)C1 (centres undefined) | 50.5% | 33.1% | 48.3% | 53.5% | < 10% |  |  |  |  |  |  |  |  |  |  |  |  |  |  |  |  |

Reference: ChEMBL document CHEMBL4376850, “1-Benzylpyrrolidine-3-amine-based BuChE inhibitors with anti-aggregating, antioxidant and metal-chelating properties as multifunctional agents against Alzheimer's disease” (Eur J Med Chem, 2020)
